# In patent US20190309066A1, “COMBINATION THERAPY FOR THE TREATMENT OF SOLID AND HEMATOLOGICAL CANCERS” (Arch Oncology, Inc., priority 2017, published 2019):
# “And” between values parts separate entries of the source, which are not always exact repeats. Equal entries are not always repeated.
# Tested on: RPMI-8226 tumors
# Test: RPMI-8226 multiple myeloma xenograft in NSG mice
# Format: in vivo, mouse
# Description: The purpose of this experiment was to evaluate the efficacy of anti-CD47 antibodies as a single agent and in combination with the proteasome inhibitor Bortezomib in the tumor growth inhibition in vivo in a xenograft mouse model of multiple myeloma. RPMI-8226 human multiple myeloma cells (ATCC #CCL-155, Manassas, Va.) were maintained in RPMI-1640 (Lonza; Walkersville, Md.) supplemented with 10% Fetal Bovine Serum (FBS; Omega Scientific; Tarzana, Calif.) and 1% Penicillin/Streptomycin (Corning, Manassas, Va.) within a 5% CO2 atmosphere. Cultures were expanded in tissue culture flasks.
# Female NSG (NOD-Cg-Prkdc^scidI12rg^tm1Wjl/SzJ) were obtained from Jackson Laboratory (Bar Harbor, Me.) at 5-6 weeks of age. Mice were acclimated prior to handling and housed in microisolator cages (Lab Products, Seaford, Del.) under specific pathogen-free conditions. Mice were fed Teklad Global Diet® 2920× irradiated laboratory animal diet (Envigo, Formerly Harlan; Indianapolis, Ind.) and provided autoclaved water ad libitum. All procedures were carried out under the institutional guidelines of Translational Drug Development Institutional Animal Care and Use Committee (Protocol #18105). Animals were identified using transponders.
# Female NSG mice were inoculated subcutaneously in the right flank with 0.1 mL of a 30% RPMI/70% Matrigel™ (BD Biosciences; Bedford, Mass.) mixture containing a suspension of 1×10^7 RPMI-8226 tumor cells. Fifteen days following inoculation, mice were randomized Test articles human IgG2 (hIgG2), an anti-CD47 antibody, and Bortezomib (LC Labs, Woburn, Mass.) were administered by intravenous (IV) injection. hIgG2 and anti-CD47 mAb were dosed on Days 0, 7, 14, 21, 28, and 35, while Bortezomib was dosed on Days 1, 4, and 12. as described below in Table 12.
# Mean tumor growth inhibition (TGI) was calculated for Day 48 (the final day all mice were on study) utilizing the following formula.
# The mean TS of each group was calculated and reported.
# All statistical analyses in the xenograft study were performed with Prism GraphPad® software. Differences in Day 48 tumor volumes were confirmed using a one-way ANOVA, unpaired, parametric with the Tukey's Multiple Comparison test with Welch's correction. A two-tailed Student's t-test with Welch's correction was also used to verify any differences between each group and the vehicle control.
# For statistical analysis purpose, any mouse sacrificed as an long term survivor (LTS) was assigned a death day of Day 99.
smiles,measurement,setting,value
CC(C)C[C@H](NC(=O)[C@H](Cc1ccccc1)NC(=O)c1cnccn1)B(O)O [Bortezomib],Mean Day of Survival Days ± SEM,Bortezomib 1 mg/kg,76.8 ± 1.6 days
same,Median Day of Survival (Min-Max),Bortezomib 1 mg/kg,78 (70-84) Days
same,Day 48 Mean Tumor Volume (mm^3),Bortezomib 1 mg/kg IV,177 ± 20 mm^3
same,tumor shrinkage (in words),Bortezomib 1 mg/kg IV monotherapy,no tumor shrinkage was recorded
same,Day 48 % TGI,"Bortezomib 1 mg/kg IV, vs hIgG2 control",96.2% and 96.2 (10) %
same,"Day 48 Outcome (ANOVA), tumor volume vs hIgG2 (Group 1)","P value, Bortezomib 1 mg/kg",P < 0.05
same,"Day 48 Outcome (Student's t-test), tumor volume vs hIgG2 (Group 1)","P value, Bortezomib 1 mg/kg",P < 0.05
same,Survival Log-Rank Outcome vs hIgG2 (Group 1),"P value, Bortezomib 1 mg/kg",P < 0.05
